This is an account of results in patent US12485103B2, “Insulin secretion-promoting agent and blood sugar level improver using same, diabetes improver, and food” (REFINE HOLDINGS CO., LTD., priority 2019, dated 2025).

The subject of this assay is cell lines derived from mouse pancreatic β-cells. Nature of the assay: Insulin secretion into the culture medium measured by ELISA. In kind it is cell-based. As to conditions: low- and high-glucose Ringer's solutions; 1 μg/mL or 10 μg/mL (any concentration); stimulated for 30 minutes. On the procedure: Low- and high-glucose Ringer's solutions in the presence of 10 μg/mL pentadecanoic acid triglyceride were added in vitro to cell lines derived from mouse pancreatic β-cells. The cells were then stimulated for 30 minutes.
Separately, as a control, ethanol at concentration of 0.1% (v/v) were added to the cells.
Insulin secreted into the culture medium was measured by ELISA.
Low- and high-glucose Ringer's solutions in the presence of 1 μg/mL or 10 μg/mL pentadecanoic acid (PA in the Figure) were added in vitro to cell lines derived from mouse pancreatic β-cells. The cells were then stimulated for 30 minutes.

Turning to `CCCCCCCCCCCCCCC(=O)O` [pentadecanoic acid], the “effect on insulin secretion” value is recorded as “no effect”.
